Data published in ChEMBL document CHEMBL2074124, “A transfected cell model for the renal toxin transporter, rOCT2” (Toxicol Sci, 1999).

T1: Solute carrier family 22 member 2 (Rattus norvegicus, UniProt Q9R0W2)
T1 sequence (Q9R0W2 whole entry): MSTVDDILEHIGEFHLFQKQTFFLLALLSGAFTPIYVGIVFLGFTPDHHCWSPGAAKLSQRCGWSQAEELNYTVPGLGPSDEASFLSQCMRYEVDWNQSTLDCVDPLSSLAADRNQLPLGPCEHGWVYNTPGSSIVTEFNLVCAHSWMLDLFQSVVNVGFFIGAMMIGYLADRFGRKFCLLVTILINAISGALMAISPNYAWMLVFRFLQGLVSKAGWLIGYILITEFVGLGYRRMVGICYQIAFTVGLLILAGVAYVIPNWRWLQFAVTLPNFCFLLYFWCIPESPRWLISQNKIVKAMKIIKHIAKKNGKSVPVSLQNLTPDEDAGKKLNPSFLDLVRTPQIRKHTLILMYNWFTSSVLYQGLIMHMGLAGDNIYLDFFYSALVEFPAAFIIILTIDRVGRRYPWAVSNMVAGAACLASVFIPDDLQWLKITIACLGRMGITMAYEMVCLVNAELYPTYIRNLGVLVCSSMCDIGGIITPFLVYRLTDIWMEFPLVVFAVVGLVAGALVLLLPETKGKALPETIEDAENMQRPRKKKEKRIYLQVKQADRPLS

B1: Solute carrier family 22 member 2 (Rattus norvegicus) (protein)
chain: T1 sequence (Q9R0W2 whole entry)

Columns and labels:
[1] = target: T1, Solute carrier family 22 member 2; experiment: TP_TRANSPORTER: inhibition of TEA uptake (apical to cell) in OCT2-expressing NIH3T3 cells; format: functional, cell-based
[2] = target: T1, Solute carrier family 22 member 2; experiment: TP_TRANSPORTER: uptake (apical to cell) in OCT2-expressing NIH3T3 cells; format: functional, cell-based; conditions: mouse
[3] = substrate: CC[N+](CC)(CC)CC; experiment: cells, lysate or membranes named

Molecule | Ki [1] [µM] | Activity [2] | further results
CN/C(=N/CCSCc1nc[nH]c1C)NC#N [CIMETIDINE] | 198 | – | –
CC[n+]1c(CC2C=C(C)N=C(c3ccccc3)N2C)ccc2ccccc21 (stereo not given) [Cyanine-863] | 0.861 | – | –
COc1cccc2c1C(=O)c1c(O)c3c(c(O)c1C2=O)C[C@@](O)(C(C)=O)C[C@@H]3O[C@H]1C[C@H](N)[C@H](O)[C@H](C)O1 [DAUNORUBICIN] | – | substrate [+] | –
CC[C@]1(O)C[C@@H]2CN(CCc3c([nH]c4ccccc34)[C@@](C(=O)OC)(c3cc4c(cc3OC)N(C)[C@H]3[C@@](O)(C(=O)OC)[C@H](OC(C)=O)[C@]5(CC)C=CCN6CC[C@]43[C@@H]65)C2)C1 [VINBLASTINE] | – | substrate [+] | –
B1 | – | – | Km [3]: 141 µM
